Measurements as given in US20200316087A1, “NOVEL COMBINATION THERAPY FOR ANXIETY DISORDERS, EPILEPSY, AND PAIN” (priority 2017, published 2020).

Experiments:
PTZ-induced clonus = assay: Pentylenetetrazole (PTZ, 35 mg/kg s.c.)-induced clonic convulsions; assay type: in vivo; conditions: rats; for PTZ Clonus to Criteria 1: MED producing maximal protection (0% seizures); for PTZ Clonus Potency (MED): lowest dose with statistically significant protection; for PTZ Clonus Potency (MED) / protection against PTZ-induced clonus: PTZ 35 mg/kg s.c.
Procedure: After the inverted screen test, the rats were dosed with pentylenetetrazole (PTZ)(35 mg/kg, s.c.) in a volume of 1 ml/kg and placed in an observation cage (40.6×20.3×15.2 cm) with a floor containing […] of wood chip bedding material. PTZ dose was determined to be ˜EC97 for producing clonic convulsions.

rat E18 cortical neurons = assay: Microelectrode array recording of cultured cortical neuron network; assay type: cell-based; conditions: 3 μM
Procedure: Meastro 12 well plates (Axion Biosystems, Atlanta, Ga.) were treated with a solution of 0.1% polyethylenimine for 2-4 hours, rinsed with sterile H2O and let dry overnight. Prior to plating of neurons, the MEAs were treated with solution of 20 μg/ml laminin for a minimum of 1 hour.
Cortices isolated from […] (MEA) were obtained from BrainBits LLC, (Springfield, Ill.) and digested enzymatically with TrypLE Express (Gibco), After 15 minutes of digestion, the tissue was mechanically dissociated with a series of sterile fire-polished glass pipettes of decreasing diameter. The dissociated neurons were plated directly onto substrate-integrated MEA plates and incubated in Nb Active1 (Brainbits LLC, Springfield, Ill.) supplemented with 5% dialyzed fetal bovine serum, 0.25% Glutamax (Gibco). Cell cultures were maintained in tissue incubator (37° C., 6% CO2) and fed twice a week by exchanging half of the medium. The experiments were performed on DIV 19-25 thus allowing partial maturation of the neurons. Prior to the experiment, the cell culture media was replaced with external buffer containing: 129 mM NaCl, 5 mM KCl, 2 mM CaCl, 1 mM […], 10 mM HEPES, 10 mM glucose. To achieve hyper-excitation the external buffer was modified by removal of magnesium or by addition of 1 mM 4aminopyridine (4-AP).
The recordings were obtained at 37° C. using Meastro System with integrated AxIS 2.3 analysis software (Axion Biosystems, Atlanta, Ga.). Channels were sampled simultaneously with a gain of 1200× and a sampling rate of 12.5 kHz/channel. On-line spike detection was done with the AXIS adaptive spike detector. For recordings, a Butterworth band-pass filter (with a high-pass cutoff of 75 Hz and low-pass cutoff of 4000 Hz) was applied along with a variable threshold spike detector set at 7× standard deviation of the rms-noise on each channel. Only wells that did show spontaneous activity (more than 0.3 Hz) on the day planned for the experiment were treated with a compound. Burst was defined as a minimum of 5 spikes occurring with an interspike interval of less than 100 ms. A minimum of one burst per minute was required for bursting analysis. Compounds were added by manual pipetting and the activity was sampled for six minutes prior and post compound addition.
The data were normalized to baseline activity and reported as mean±standard error of the mean (SEM). For single treatment a single sample t-test was used. To compare between group effects, analysis of variance (ANOVA) with Dunnett's multiple comparison test were utilized; P<0.05 was considered significant.

[1] = test system: punished licking (anxiety); assay: Vogel conflict test; assay type: in vivo; conditions: rats
Procedure: Experiments are conducted as described in the protocol of Alt et al. (Neuropharmacology 2007, 52, 1482-1487). Experimentally-naive adult male Sprague-Dawley rats (Harlan Industries, Indianapolis, Ind.), weighing between 200 and 300 g, are used as subjects. The rats are housed in Plexiglas cages (4 per cage) and given free access to Lab Diet #5001 for rodents (PMI Nutrition International Inc., St. Louis, Mo.). Water is withheld for 20-24 hours prior to the first training session. A 12-hr light/dark cycle is maintained, and all experimental sessions are conducted during the light phase of the cycle at about the same time each day.
The experiments are conducted using operant behavior test chambers ENV-007 (Med Associates Inc., Georgia, Vt., USA), 30.5×24.1×29.2 cm. […] All events are controlled and licking data is recorded by a Compaq computer running MED-PC Version IV (Med Associates Inc., Georgia, Vt., USA).
Rats are put into the chamber on day 1 and 2 with white noise and the houselight illuminated, and allowed to drink for a total of six minutes after the first lick is made. The six minutes is broken into two components, the first three minutes is recorded as the unpunished component and the second three minutes are recorded as the punished component. […]
The mean number of licks for both the unpunished and punished components are analyzed. […]

Structure (SMILES)	PTZ Clonus to Criteria 1 (PTZ-induced clonus) [mg/kg]	PTZ Clonus Potency (MED) (PTZ-induced clonus) [mg/kg]	protection against PTZ-induced clonus (PTZ-induced clonus)	frequency of bursting (rat E18 cortical neurons; hyper-excited by 1 mM 4AP, n=6, mean±SEM)	frequency of spiking (rat E18 cortical neurons; hyper-excited by 1 mM 4AP, n=7, mean±SEM)	frequency of bursting (rat E18 cortical neurons; hyper-excited by removal of magnesium, n=5, mean±SEM)	frequency of spiking (rat E18 cortical neurons; hyper-excited by removal of magnesium, n=7, mean±SEM)	frequency of spiking (rat E18 cortical neurons; normal magnesium external solution, n=7)	frequency of bursting (rat E18 cortical neurons; normal magnesium, n=7)	frequency of bursting (rat E18 cortical neurons; reduced magnesium (0.1 mM Mg++), n=4)	frequency of spiking (rat E18 cortical neurons; reduced magnesium (0.1 mM Mg++), n=4, p>0.05)	anxiolytic-like efficacy in Vogel conflict test [1]
C#Cc1ccc2c(c1)C(c1ccccn1)=NCc1c(-c3cnco3)ncn1-2 [KRM-II-81, 5-(8-ethynyl-6-(pyridin-2-yl)-4H-benzo[f]imidazo[1,5-a][1,4]diazepin-3-yl)oxazole]	30	30	fully prevented	50.9±8.8 % of control	50.5±7.5 % of control	54.8±7.1 % of control	62.2±3.8 % of control	no significant effect	no significant effect	no significant effect	small depression of spiking	–
C#Cc1ccc2c(c1)C(c1ccccc1)=NCc1c(-c3cnco3)ncn1-2 [KRM-II-82, 5-(8-ethynyl-6-phenyl-4H-benzo[f]imidazo[1,5-a][1,4]diazepin-3-yl)oxazole]	30	10	dose-dependently suppressed	–	–	–	–	–	–	–	–	did not produce anxiolytic-like efficacy
